Source: patent publication US20220378948A1, “METAL-BINDING PEPTIDE, AND USE THEREOF” (The Jikei University, priority 2019, published 2022)

Assay: Adsorption on stent in plasma, fluorescence microscopy
Type: binding
Conditions: stent immersed in human plasma (37° C., 30 minutes), then 0.5 mM solution
Experimental: Next, in order to analyze the binding ability of the peptide of the present invention and the 4-branched peptide complex to a stent existing in plasma, whether or not the peptide of the present invention also binds to a stent that has been allowed to come into contact with plasma was examined.
That is, a stent was immersed in human plasma (37° C., 30 minutes), and was then removed from the plasma. The stent was then immersed in each peptide solution (0.5 mM) and a 4-branched peptide complex solution (0.5 mM) (37° C., 30 minutes). Thereafter, the stent was sufficiently rinsed with PBS, and was then observed under an upright fluorescence microscope.

- binding to the surface of a stent in human plasma (fluorescence): does not bind to a Co—Cr stent
Substance: SEQ ID NO: 9: control peptide that does not bind to a Co—Cr stent; sequence not printed in the text (MKAHHSQLYPRH)
